Source: patent US20090214670A1, “Rhcc peptide and uses thereof” (Optovent AB, priority 2005, published 2009)

Columns and labels:
RHCC peptide = test: NMR and UV-Vis absorption experiments on incorporation of metal ions in solution; type: binding, Staphylothermus marinus
Description: For the addition of electrons according to reaction (4), electrochemical or photoelectrochemical reduction (with e.g. [Ru(bpy)3]^2+) may be used, although the simple addition of a chemical reducing agent (e.g. NaBH4) is also possible.

RHCC [1] = test: filtering experiment: excess metal complex removed via size exclusion filters, absorption spectra; type: binding, Staphylothermus marinus; conditions: mixed with excess metal complex, stirred at least 1 hour, solvent replaced via size exclusion filters; FIG. 2 and 3
Procedure: After leaving the mixed solution stirred for at least 1 hour, the solvent containing RHCC, the metal complex and the buffer or any other supporting salt, the solvent together with any excess metal complex and salt is replaced via size exclusion filters by a solvent NOT containing any metal complex. The result of such an experiment is plotted in FIG. 2. […] In combination with the x-ray structures a location of HgI4^2− inside the cavities in solution can be concluded. […] According to the crystal structure, incorporation into the cavities of RHCC can be concluded for cisplatin.

[2] = test system: IL-6-dependent BAF/3 cell line; test: biological activity on the IL-6-dependent BAF/3 cell line; type: cell-based
Description: The calculated molecular mass of RHCC-IL-6 monomer is 28.3 kDa. […] The corresponding value for the tetramer is […].

RHCC [3] = test: localisation by UV-Vis spectroscopy (solvatochromic effect); type: binding, Staphylothermus marinus; conditions: tris-buffer solution with RHCC compared with water, methanol, water/methanol 50/50; FIG. 1
Procedure: The location of a drug inside the cavities can be detected by techniques sensitive to the local microscopic environment of the molecule, e.g. the drug. For example the absorption of visible light (UV-Vis spectroscopy—solvatochromic effect) can be used to probe the local environment of e.g. […] (FIG. 1). The position of the absorption peak of […] is measured in water (FIG. 1—Plot A), in methanol (FIG. 1, Plot C), water/methanol (50/50) (FIG. 1—Plot B) and in a mixture with the peptide (FIG. 1—Plot E).

| Molecule | incorporation of the metal ion into RHCC peptide in solution (RHCC peptide) | interaction of metal complex with RHCC after filtering off excess complex (RHCC [1]) | biological activity on IL-6-dependent BAF/3 cell line [2] | local environment of the complex when mixed with the peptide (absorption peak position) (RHCC [3]) |
| --- | --- | --- | --- | --- |
| [Cl][Pt-2]([Cl])([Cl])[Cl] [[PtCl4]^−] | incorporates the metal ion in solution | – | – | – |
| N.N.[Cl][Pt][Cl] [cisplatin] | – | strong interaction | – | – |
| RHCC-IL-6 fusion molecule: fusion protein: histidine tag, human interleukin-6 sequence, GS linker, RHCC sequence; forms a tetramer | – | – | full biological activity | – |
| [I][Hg-2]([I])([I])[I] [HgI4^2−] | incorporates the metal ion in solution | strong enough to prevent HgI4^2− from being filtered from the solution | – | resides in a hydrophobic environment |
